Read-outs that look alike come from different tables or passages of the source.
Legend:
Type in all cases: in vivo
[1] = test system: wheat (Triticum aestivum); test: Test A postemergence; conditions: Triticum aestivum, post-emergence, 240 h, 125 g ai/ha
Outline: (§1)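 Visual injury, scored on a 0–100 scale relative to untreated controls, was recorded about 10 d after application. Treatments were a preemergence soil spray over planted seeds or a postemergence spray on plants at the one- to two-leaf stage, 2 to 10 cm tall, all in loam soil–sand blend in the greenhouse.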

[2] = test system: blackgrass (Alopecurus myosuroides); test: Test A postemergence; conditions: Alopecurus myosuroides, post-emergence, 240 h, 125 g ai/ha
Outline: as §1

[3] = test system: barnyardgrass (Echinochloa crus-galli); test: Test A postemergence; conditions: Echinochloa crus-galli, post-emergence, 240 h, 125 g ai/ha
Outline: as §1

[4] = test system: pigweed (Amaranthus retroflexus); test: Test A postemergence; conditions: Amaranthus retroflexus, post-emergence, 240 h, 125 g ai/ha
Outline: as §1

[5] = test system: giant foxtail (Setaria faberii); test: Test A postemergence; conditions: Setaria faberi, post-emergence, 240 h, 125 g ai/ha
Outline: as §1

corn (Zea mays) = test: Test A postemergence; conditions: Zea mays, post-emergence, 240 h, 125 g ai/ha; for plant injury at 125 g/ha: postemergence, visual injury rating after approximately 10 d, read-out: Corn plant response rating (0 to 100 scale, 0 no effect, 100 complete control)
Outline: as §1

Kochia (Kochia scoparia) [6] = test: Test A postemergence; conditions: Bassia scoparia, post-emergence, 240 h, 125 g ai/ha
Outline: as §1

[7] = test system: Galium (catchweed bedstraw, Galium aparine); test: Test A postemergence; conditions: Galium, post-emergence, 240 h, 125 g ai/ha
Outline: as §1

[8] = test system: ryegrass, Italian (Italian ryegrass, Lolium multiflorum); test: Test A postemergence; conditions: Lolium multiflorum, post-emergence, 240 h, 125 g ai/ha
Outline: as §1

[9] = test system: ragweed (common ragweed, Ambrosia elatior); test: Test A postemergence; conditions: Ambrosia artemisiifolia, post-emergence, 240 h, 125 g ai/ha
Outline: as §1

[10] = test system: barnyardgrass (Echinochloa crus-galli); test: Test A preemergence; conditions: Echinochloa crus-galli, pre-emergence, 240 h; for pest or weed control at 125 g/ha: 125 g ai/ha, 0 to 100 scale where 0 is no effect and 100 is complete control; for pest or weed control at 500 g/ha: 500 g ai/ha
Outline: as §1

[11] = test system: pigweed (Amaranthus retroflexus); test: Test A preemergence; conditions: Amaranthus retroflexus, pre-emergence, 240 h; for pest or weed control at 125 g/ha: 125 g ai/ha, 0 to 100 scale where 0 is no effect and 100 is complete control; for pest or weed control at 500 g/ha: 500 g ai/ha
[12] = test system: giant foxtail (Setaria faberii); test: Test A preemergence; conditions: Setaria faberi, pre-emergence, 240 h; for pest or weed control at 125 g/ha: 125 g ai/ha, 0 to 100 scale where 0 is no effect and 100 is complete control; for pest or weed control at 500 g/ha: 500 g ai/ha
Outline: as §1

Kochia (Kochia scoparia) [13] = test: Test A preemergence; conditions: Bassia scoparia, pre-emergence, 240 h; for pest or weed control at 125 g/ha: 125 g ai/ha, 0 to 100 scale where 0 is no effect and 100 is complete control; for pest or weed control at 500 g/ha: 500 g ai/ha
Outline: as §1

[14] = test system: ryegrass, Italian (Italian ryegrass, Lolium multiflorum); test: Test A preemergence; conditions: Lolium multiflorum, pre-emergence, 240 h; for pest or weed control at 125 g/ha: 125 g ai/ha, 0 to 100 scale where 0 is no effect and 100 is complete control; for pest or weed control at 500 g/ha: 500 g ai/ha
Outline: as §1

[15] = test system: ragweed (common ragweed, Ambrosia elatior); test: Test A preemergence; conditions: Ambrosia artemisiifolia, pre-emergence, 240 h; for pest or weed control at 125 g/ha: 125 g ai/ha, 0 to 100 scale where 0 is no effect and 100 is complete control; for pest or weed control at 500 g/ha: 500 g ai/ha
Outline: as §1

[16] = postemergence, visual injury rating after approximately 10 d, read-out: Wheat plant response rating (0 to 100 scale, 0 no effect, 100 complete control)
[17] = postemergence, visual injury rating after approximately 10 d, read-out: Blackgrass plant response rating (0 to 100 scale, 0 no effect, 100 complete control)
[18] = postemergence, visual injury rating after approximately 10 d, read-out: Barnyardgrass plant response rating (0 to 100 scale, 0 no effect, 100 complete control)
[19] = postemergence, visual injury rating after approximately 10 d, read-out: Pigweed plant response rating (0 to 100 scale, 0 no effect, 100 complete control)
[20] = postemergence, visual injury rating after approximately 10 d, read-out: Foxtail, Giant plant response rating (0 to 100 scale, 0 no effect, 100 complete control)
[21] = postemergence, visual injury rating after approximately 10 d, read-out: Kochia plant response rating (0 to 100 scale, 0 no effect, 100 complete control)
[22] = postemergence, visual injury rating after approximately 10 d, read-out: Galium plant response rating (0 to 100 scale, 0 no effect, 100 complete control)
[23] = postemergence, visual injury rating after approximately 10 d, read-out: Ryegrass, Italian plant response rating (0 to 100 scale, 0 no effect, 100 complete control)
[24] = postemergence, visual injury rating after approximately 10 d, read-out: Ragweed plant response rating (0 to 100 scale, 0 no effect, 100 complete control)
[25] = preemergence, read-out: Barnyardgrass plant response rating
[26] = Preemergence, visual injury vs untreated controls after approximately 10 d, read-out: Barnyardgrass plant response rating (0 to 100 scale where 0 is no effect and 100 is complete control)
[27] = preemergence, read-out: Pigweed plant response rating
[28] = Preemergence, visual injury vs untreated controls after approximately 10 d, read-out: Pigweed plant response rating (0 to 100 scale where 0 is no effect and 100 is complete control)
[29] = preemergence, read-out: Foxtail, Giant plant response rating
[30] = Preemergence, visual injury vs untreated controls after approximately 10 d, read-out: Foxtail, Giant plant response rating (0 to 100 scale where 0 is no effect and 100 is complete control)
[31] = preemergence, read-out: Kochia plant response rating
[32] = Preemergence, visual injury vs untreated controls after approximately 10 d, read-out: Kochia plant response rating (0 to 100 scale where 0 is no effect and 100 is complete control)
[33] = preemergence, read-out: Ryegrass, Italian plant response rating
[34] = Preemergence, visual injury vs untreated controls after approximately 10 d, read-out: Ryegrass, Italian plant response rating (0 to 100 scale where 0 is no effect and 100 is complete control)
[35] = preemergence, read-out: Ragweed plant response rating
[36] = Preemergence, visual injury vs untreated controls after approximately 10 d, read-out: Ragweed plant response rating (0 to 100 scale where 0 is no effect and 100 is complete control)

Compound | plant injury at 125 g/ha [1, 16] [%] | pest or weed control at 125 g/ha [2, 17] [%] | pest or weed control at 125 g/ha [3, 18] [%] | pest or weed control at 125 g/ha [4, 19] [%] | pest or weed control at 125 g/ha [5, 20] [%] | plant injury at 125 g/ha (corn (Zea mays)) [%] | pest or weed control at 125 g/ha (Kochia (Kochia scoparia) [6]; [21]) [%] | pest or weed control at 125 g/ha [7, 22] [%] | pest or weed control at 125 g/ha [8, 23] [%] | pest or weed control at 125 g/ha [9, 24] [%] | pest or weed control at 125 g/ha [10, 25] [%] | pest or weed control at 500 g/ha [10, 26] [%] | pest or weed control at 125 g/ha [11, 27] [%] | pest or weed control at 500 g/ha [11, 28] [%] | pest or weed control at 125 g/ha [12, 29] [%] | pest or weed control at 500 g/ha [12, 30] [%] | pest or weed control at 125 g/ha (Kochia (Kochia scoparia) [13]; [31]) [%] | pest or weed control at 500 g/ha (Kochia (Kochia scoparia) [13]; [32]) [%] | pest or weed control at 125 g/ha [14, 33] [%] | pest or weed control at 500 g/ha [14, 34] [%] | further results
Cc1cc(C)cc([C@H]2CN(C)C(=O)[C@@H]2C(=O)Nc2ccccc2F)c1 [Compound 910] | 0 | 50 | 90 | 0 | 90 | 70 | 20 | 30 | 50 | 10 | 90 | 100 | 0 | 30 | 90 | 100 | 60 | 90 | 50 | 60 | pest or weed control at 125 g/ha [15, 35]: 0%; pest or weed control at 500 g/ha [15, 36]: 0%
Cc1cc([C@H]2CN(C)C(=O)[C@@H]2C(=O)Nc2ccc(F)c(F)c2F)ccc1Cl [Compound 931] | – | – | – | – | – | – | – | – | – | – | 90 | – | 30 | – | 90 | – | 90 | – | – | – | plant injury at 125 g/ha ([1]; Postemergence, visual injury after approximately 10 d, 0 to 100 scale where 0 is no effect and 100 is complete control, read-out: Plant response rating, Wheat): 30%; pest or weed control at 125 g/ha ([2]; Postemergence, visual injury after approximately 10 d, 0 to 100 scale where 0 is no effect and 100 is complete control, read-out: Plant response rating, Blackgrass): 20%; pest or weed control at 125 g/ha ([3]; Postemergence, visual injury after approximately 10 d, 0 to 100 scale where 0 is no effect and 100 is complete control, read-out: Plant response rating, Barnyardgrass): 80%; pest or weed control at 125 g/ha ([4]; Postemergence, visual injury after approximately 10 d, 0 to 100 scale where 0 is no effect and 100 is complete control, read-out: Plant response rating, Pigweed): 20%; pest or weed control at 125 g/ha ([5]; Postemergence, visual injury after approximately 10 d, 0 to 100 scale where 0 is no effect and 100 is complete control, read-out: Plant response rating, Foxtail, Giant): 90%; Corn plant response rating (crop injury, 0 = no effect, 100 = complete kill) at 125 g/ha (corn (Zea mays); Postemergence, visual injury after approximately 10 d, 0 to 100 scale where 0 is no effect and 100 is complete control): 70%; pest or weed control at 125 g/ha (Kochia (Kochia scoparia) [6]; Postemergence, visual injury after approximately 10 d, 0 to 100 scale where 0 is no effect and 100 is complete control, read-out: Plant response rating, Kochia): 30%; pest or weed control at 125 g/ha ([7]; Postemergence, visual injury after approximately 10 d, 0 to 100 scale where 0 is no effect and 100 is complete control, read-out: Plant response rating, Galium): 40%; pest or weed control at 125 g/ha ([8]; Postemergence, visual injury after approximately 10 d, 0 to 100 scale where 0 is no effect and 100 is complete control, read-out: Plant response rating, Ryegrass, Italian): 30%; pest or weed control at 125 g/ha ([9]; Postemergence, visual injury after approximately 10 d, 0 to 100 scale where 0 is no effect and 100 is complete control, read-out: Plant response rating, Ragweed): 0%; pest or weed control at 500 g/ha ([10]; preemergence, visual injury rating about 10 d after treatment, 0 to 100 scale (0 no effect, 100 complete control), read-out: Barnyardgrass plant response rating): 90%; pest or weed control at 500 g/ha ([11]; preemergence, visual injury rating about 10 d after treatment, 0 to 100 scale (0 no effect, 100 complete control), read-out: Pigweed plant response rating): 40%; pest or weed control at 500 g/ha ([12]; preemergence, visual injury rating about 10 d after treatment, 0 to 100 scale (0 no effect, 100 complete control), read-out: Foxtail, Giant plant response rating): 90%; pest or weed control at 500 g/ha (Kochia (Kochia scoparia) [13]; preemergence, visual injury rating about 10 d after treatment, 0 to 100 scale (0 no effect, 100 complete control), read-out: Kochia plant response rating): 90%; pest or weed control at 500 g/ha ([14]; preemergence, visual injury rating about 10 d after treatment, 0 to 100 scale (0 no effect, 100 complete control), read-out: Ryegrass, Italian plant response rating): 70%; pest or weed control at 500 g/ha ([15]; preemergence, visual injury rating about 10 d after treatment, 0 to 100 scale (0 no effect, 100 complete control), read-out: Ragweed plant response rating): 30%
Cc1c(F)ccc([C@H]2CN(C)C(=O)[C@@H]2C(=O)Nc2ccccc2F)c1F [Compound 833] | 0 | 40 | 90 | 0 | 90 | 20 | 30 | 40 | 60 | 0 | 90 | 90 | 0 | 0 | 90 | 100 | 70 | 80 | 70 | 80 | pest or weed control at 125 g/ha [15, 35]: 0%; pest or weed control at 500 g/ha [15, 36]: 20%
